Where two headings read alike, the source gives them in different places.
Experiments:
[1] = log P determination by HPLC (EEC Directive 79/831 Annex V.A8); assay type: physicochemical
Description: The measurements were carried out using an Agilent 1100 LC system with a 50*4.6 Zorbax Eclipse C18 1.8 μm column (oven temperature 55° C., flow rate 2.0 ml/min).
The following mobile phases were used:
Mobile phase A: acetonitrile+1000 μl of formic acid/l
Mobile phase B: Millipore water+900 μl of formic acid/l

[2] = test system: caterpillars of the armyworm (Spodoptera frugiperda); experiment: Spodoptera frugiperda test (SPODFR spray treatment); assay type: in vivo; details: Spodoptera frugiperda, foliar, read-out: effect in % (caterpillars killed)
Excerpt: (§1) Solvent: 78.0 parts by weight of acetone

[3] = test system: green peach aphid (Myzus persicae); experiment: Myzus test (MYZUPE spray treatment); assay type: in vivo; details: for pest or weed control at 100 g/ha: Myzus persicae, foliar, read-out: effect in % (aphids killed); for Kill in %/7 days: 100 g/ha
Excerpt: Solvent: 78 parts by weight of acetone
as §1

[4] = test system: larvae of the mustard beetle (Phaedon cochleariae); experiment: Phaedon test (PHAECO spray treatment); details: Phaedon cochleariae, in Brassica rapa, foliar, read-out: effect in % (beetle larvae killed)
[5] = application rate 100 g/ha, maize leaf discs
[6] = application rate 100 g/ha, Chinese cabbage leaf discs
[7] = reversed-phase HPLC, Zorbax Eclipse C18 column, determined by HPLC according to EEC Directive 79/831 Annex V.A8, read-out: log P
[8] = reversed-phase HPLC, Zorbax Eclipse C18 column, by HPLC according to EEC Directive 79/831 Annex V.A8, read-out: log P

| Compound | chromatographic logP ([1]; log P) | pest or weed control at 100 g/ha ([2]; in Zea mays) | pest or weed control at 100 g/ha [4] | pest or weed control at 100 g/ha [2, 5] | further results |
| --- | --- | --- | --- | --- | --- |
| Cc1cc(C)c(NC(=O)c2cc(Cn3nnc(C(F)(F)F)n3)nn2-c2ncccc2Cl)c(C(N)=O)c1 [Example 80] | 2.62 | ≥ 80% |  |  | pest or weed control at 100 g/ha ([3]; in Brassica rapa): ≥ 80% |
| CNC(=O)c1cc(C#N)cc(C)c1NC(=O)c1cc(C(C)n2nnnc2C(F)(F)F)nn1-c1ncccc1Cl (centres unmarked) [Example 512] | 2.53 |  | ≥ 80% |  | pest or weed control at 100 g/ha ([3]; in Brassica rapa): ≥ 80% |
| Cc1cc(I)cc(C(=O)NCC#N)c1NC(=O)c1cc(Cn2nnc(C(F)(F)F)n2)nn1-c1ncccc1C(F)(F)F [Example 240] |  |  | ≥ 80% | ≥ 80% | pest or weed control at 100 g/ha [3, 6]: ≥ 80% |
| CSC[C@H](C)NC(=O)c1cc(C#N)cc(C)c1NC(=O)c1cc(Cn2nnc(C(F)(F)F)n2)nn1-c1ncccc1Cl [Example 22] |  |  |  |  | log P [1]: 3.27; pest or weed control at 100 g/ha ([3]; in Brassica rapa): ≥ 80% |
| Cc1cc(I)cc(C(=O)NC2CC2)c1NC(=O)c1cc(Cn2nnc(C(F)(F)C(F)(F)F)n2)nn1-c1ncccc1Cl [Example 217] |  | ≥ 80% | ≥ 80% |  | pest or weed control at 100 g/ha ([3]; in Brassica rapa): ≥ 80% |
| Cc1cc(C)c(NC(=O)c2cc(Cn3nnnc3C(F)(F)F)nn2-c2ncccc2Cl)c(C(=O)NC(C)C)c1 [Example 179] | 2.94 | ≥ 80% |  |  | pest or weed control at 100 g/ha ([3]; in Brassica rapa): ≥ 80% |
| Cc1cc(Cl)cc(C(=O)NC(C)C)c1NC(=O)c1cc(Cn2nnc(C(F)(F)C(F)(F)F)n2)nn1-c1ncccc1Cl [drawing 603] |  |  |  |  | Kill in %/7 days [3]: 70% |
| Cc1cc(I)cc(C(=O)NC(C)C2CC2)c1NC(=O)c1cc(Cn2nnc(C(F)F)n2)nn1-c1ncccc1Cl (centres unmarked) [Example 274] | 3.52 | ≥ 80% |  |  | pest or weed control at 100 g/ha ([3]; in Brassica rapa): ≥ 80% |
| Cc1cc(C#N)cc(C(N)=O)c1NC(=O)c1cc(Cn2nnnc2C(F)(F)C(F)(F)F)nn1-c1ncccc1Br [Example 517] |  |  | ≥ 80% |  | chromatographic logP [1, 7]: 2.53; pest or weed control at 100 g/ha [3, 6]: ≥ 80% |
| CNC(=O)c1cc(Cl)cc(C)c1NC(=O)c1cc(Cn2nnnc2C(F)(F)F)nn1-c1ncccc1Cl [drawing 605] |  |  |  |  | Kill in %/7 days [3]: 100% |
| Cc1cc(I)cc(C(=O)NC2CC2)c1NC(=O)c1cc(Cn2nnc(C(F)(F)F)n2)nn1-c1ncccc1C(F)(F)F [Example 246] |  |  | ≥ 80% | ≥ 80% | pest or weed control at 100 g/ha [3, 6]: ≥ 80% |
| Cc1cc(C#N)cc(C(=O)NCCC(F)(F)F)c1NC(=O)c1cc(Cn2nnnc2C(F)(F)F)nn1-c1ncccc1Cl [Example 188] | 2.88 |  | ≥ 80% |  | pest or weed control at 100 g/ha ([3]; in Brassica rapa): ≥ 80% |
| CCNC(=O)c1cc(C)cc(C)c1NC(=O)c1cc(Cn2nnc(C(F)(F)F)n2)nn1-c1ncccc1Cl [Example 81] | 3.06 | ≥ 80% |  |  | pest or weed control at 100 g/ha ([3]; in Brassica rapa): ≥ 80% |
| CNC(=O)c1cc(Cl)cc(C)c1NC(=O)c1cc(Cn2nnnc2-c2ccc(C(F)(F)F)cc2)nn1-c1ncccc1Cl [drawing 606] |  |  |  |  | Kill in %/7 days [3]: 80% |
| NC(=O)c1cc(Cl)cc(Cl)c1NC(=O)c1cc(Cn2nnc(C(F)(F)C(F)(F)F)n2)nn1-c1ncccc1Cl [Example 155] | 3.13 | ≥ 80% | ≥ 80% |  |  |
| CCNC(=O)c1cc(I)cc(C)c1NC(=O)c1cc(Cn2nnc(C(F)(C(F)(F)F)C(F)(F)F)n2)nn1-c1ncccc1Cl [Example 380] | 4.2 | ≥ 80% | ≥ 80% |  |  |
| O=C(NCC1CC1)c1cc(Cl)cc(Cl)c1NC(=O)c1cc(Cn2nnc(C(F)(C(F)(F)F)C(F)(F)F)n2)nn1-c1ncccc1Cl [Example 392] |  |  | ≥ 80% | ≥ 80% | chromatographic logP [1, 8]: 4.17 |
| Cc1cc(Cl)cc(C(=O)NC2CCC2)c1NC(=O)c1cc(Cn2nnc(C(F)F)n2)nn1-c1ncccc1Cl [Example 260] | 3.09 | ≥ 80% | ≥ 80% |  |  |
| Cc1cc(C#N)cc(C(=O)NC2CCC2)c1NC(=O)c1cc(Cn2nnc(C(F)(F)C(F)(F)F)n2)nn1-c1ncccc1Cl [Example 139] | 3.61 | ≥ 80% | ≥ 80% |  |  |
| Cc1cc(Cl)cc(C(=O)NCC2CC2)c1NC(=O)c1cc(Cn2nnc(C(F)(C(F)(F)F)C(F)(F)F)n2)nn1-c1ncccc1Cl [Example 359] |  |  | ≥ 80% | ≥ 80% | chromatographic logP [1, 8]: 4.26 |

| Compound | chromatographic logP ([1]; log P) | pest or weed control at 100 g/ha ([2]; in Zea mays) | pest or weed control at 100 g/ha [4] | pest or weed control at 100 g/ha [2, 5] | further results |
| --- | --- | --- | --- | --- | --- |
| Cc1cc(Cl)cc(C(=O)NC2CC2)c1NC(=O)c1cc(Cn2nnc(C(F)(F)F)n2)nn1-c1ncccc1Cl [Example 25] | 3.23 | ≥ 80% | ≥ 80% |  |  |
| Cc1cc(Cl)cc(C(=O)NC2CCC2)c1NC(=O)c1cc(Cn2nnc(C(F)(F)C(F)(F)F)n2)nn1-c1ncccc1Cl [Example 132] | 4.03 | ≥ 80% | ≥ 80% |  |  |
| Cc1cc(C)c(NC(=O)c2cc(Cn3nnc(C(F)(F)F)n3)nn2-c2ncccc2Cl)c(C(=O)NC(C)C2CC2)c1 (centres unmarked) [Example 82] | 3.59 | ≥ 80% |  |  | pest or weed control at 100 g/ha ([3]; in Brassica rapa): ≥ 80% |
| Cc1cc(F)cc(C(=O)NC(C)C)c1NC(=O)c1cc(Cn2nnc(C(F)(F)F)n2)nn1-c1ncccc1Cl [Example 40] | 3.11 | ≥ 80% | ≥ 80% |  |  |
| CNC(=O)c1cc(C#N)cc(C)c1NC(=O)c1cc(Cn2nnc(C(F)(F)F)n2)nn1-c1cccc(Cl)c1Cl [Example 327] |  |  | ≥ 80% | ≥ 80% | chromatographic logP [1, 8]: 3.4 |
| Cc1cc(C#N)cc(C(=O)NC2CC2)c1NC(=O)c1cc(Cn2nnc(C(F)(F)F)n2)nn1-c1ncccc1C(F)(F)F [Example 233] |  |  | ≥ 80% | ≥ 80% | chromatographic logP [1, 8]: 3.07 |
| Cc1cc(I)cc(C(N)=O)c1NC(=O)c1cc(Cn2nnc(C(F)(F)F)n2)nn1-c1ncccc1C(F)(F)F [Example 250] |  |  | ≥ 80% | ≥ 80% | chromatographic logP [1, 8]: 3.16 |
| Cc1cc(Cl)cc(C(N)=O)c1NC(=O)c1cc(Cn2nnc(C(F)(F)F)n2)nn1-c1ncccc1Cl [Example 16] |  |  | ≥ 80% |  | log P [1]: 2.77; pest or weed control at 100 g/ha ([3]; in Brassica rapa): ≥ 80% |
| CNC(=O)c1cc(Cl)cc(Cl)c1NC(=O)c1cc(Cn2nnc(C(F)F)n2)nn1-c1ncccc1Cl [Example 282] | 2.48 | ≥ 80% | ≥ 80% |  |  |
| CNC(=O)c1cc(C#N)cc(C)c1NC(=O)c1cc(Cn2nnc(C(F)F)n2)nn1-c1ncccc1Cl [Example 262] | 2.17 | ≥ 80% | ≥ 80% |  |  |
| CCNC(=O)c1cc(Cl)cc(C)c1NC(=O)c1cc(Cn2nnc(C(F)(C(F)(F)F)C(F)(F)F)n2)nn1-c1ncccc1Cl [Example 364] | 3.96 | ≥ 80% | ≥ 80% |  |  |
| CNC(=O)c1cc(Cl)cc(C)c1NC(=O)c1cc(Cn2nnc(C(F)(F)F)n2)nn1-c1ncccc1C(F)(F)F [Example 226] |  |  | ≥ 80% | ≥ 80% | chromatographic logP [1, 8]: 3.16 |
| CNC(=O)c1cc(Cl)cc(C)c1NC(=O)c1cc(Cn2nnc(C(F)(C(F)(F)F)C(F)(F)F)n2)nn1-c1ncccc1Cl [Example 357] | 3.72 | ≥ 80% | ≥ 80% |  |  |
| Cc1cc(Cl)cc(C(=O)NC(C)C)c1NC(=O)c1cc(Cn2nnc(C(F)F)n2)nn1-c1ncccc1Cl [Example 231] | 2.95 | ≥ 80% | ≥ 80% |  |  |
| Cc1cc(C#N)cc(C(=O)NC(C)C2CC2)c1NC(=O)c1cc(Cn2nnc(C(F)(C(F)(F)F)C(F)(F)F)n2)nn1-c1ncccc1Cl (centres unmarked) [Example 368] |  |  | ≥ 80% | ≥ 80% | chromatographic logP [1, 8]: 4.07 |
| CNC(=O)c1cc(Cl)cc(C)c1NC(=O)c1cc(Cn2nnc(C(F)(F)C(F)(F)F)n2)nn1-c1ccccc1Cl [Example 402] |  |  | ≥ 80% | ≥ 80% | chromatographic logP [1, 7]: 3.78 |
| Cc1cc(C#N)cc(C(=O)NC(C)(C)C)c1NC(=O)c1cc(Cn2nnc(C(F)(F)F)n2)nn1-c1ccccc1Cl [Example 343] |  |  | ≥ 80% | ≥ 80% | chromatographic logP [1, 8]: 3.92 |
| CC(C)(C)NC(=O)c1cc(Cl)cc(Cl)c1NC(=O)c1cc(Cn2nnc(C(F)(C(F)(F)F)C(F)(F)F)n2)nn1-c1ncccc1Cl [Example 390] |  |  | ≥ 80% | ≥ 80% | chromatographic logP [1, 8]: 4.47 |
| CSC[C@H](C)NC(=O)c1cc(C#N)cc(C)c1NC(=O)c1cc(Cn2nnc(C(F)(F)F)n2)nn1-c1ncccc1Cl [Example 14] | 3.28 | ≥ 80% | ≥ 80% |  |  |
| Cc1cc(I)cc(C(=O)NC(C)C)c1NC(=O)c1cc(Cn2nnc(C(F)(F)F)n2)nn1-c1ncccc1Cl [Example 71] | 3.73 | ≥ 80% | ≥ 80% |  |  |
